According to a melting point compilation (Tetko et al.; mined from patent text by program, amines drawn as free bases though some values may be those of a salt):

**Q.** For CC(=O)N1CCSc2cccc(Cl)c2C1, which melting point is on record?
**A.** 79 to 81 °C

**Q.** For COC(=O)c1cccc(-c2nc(CO)cs2)c1, which melting point is on record?
**A.** 115 to 117 °C

**Q.** For CC(C)(C)OC(=O)c1ccccc1-c1ccc(CNC(=O)C2(N)CCOCC2)cc1, which melting point is on record?
**A.** 125 to 127 °C

**Q.** For Cc1ncc(C=CC=CC(=O)O)s1, which melting point is on record?
**A.** 220 to 222 °C

**Q.** With CCCOc1ccc(S(=O)(=O)N2CCN(CCOC(=O)CCC)CC2)cc1-c1nc2c(CCC)cn(CC)c2c(=O)[nH]1 as the molecule, how does the melting point read?
**A.** 71.5 to 73 °C

**Q.** For O=C(c1ccccc1)c1ccc(Nc2ccccc2NC(=O)C(F)(F)F)cc1, which melting point is on record?
**A.** 187 to 191 °C

**Q.** For CNC(=O)N(O)C(C)c1ccc(-n2c(C)ccc2C)cc1 (stereo not given), which melting point is on record?
**A.** 131 to 133 °C

**Q.** For COc1csc(C=CC(=O)c2ccccc2)c1, which melting point is on record?
**A.** 104 °C

**Q.** Which melting point does the source give for O=C(O)c1cn(C2COC2)c2cc(N3CCNCC3)c(F)c(O)c2c1=O here?
**A.** 266 to 273 °C

**Q.** For COc1cn(-c2ccc(N3CCC(F)(F)CC3)cc2F)nc(-c2ccnn2-c2ccccc2)c1=O, which melting point is on record?
**A.** 192 to 194 °C

**Q.** Which melting point does the source give for COC(=O)c1ccc(OCC(O)c2cc3cc(C(C)(C)C)ccc3o2)cc1 (stereo not given) here?
**A.** 110 to 112 °C

**Q.** For Cn1c(C(F)(F)F)cc(=O)n(-c2cc(OCC(N)=O)c(Cl)cc2F)c1=O, which melting point is on record?
**A.** 104 to 106 °C

**Q.** With CN(C)CCc1[nH]c2ccccc2c1CSC(=S)N(C)C as the molecule, how does the melting point read?
**A.** 125 to 128 °C

**Q.** For Cc1ccc2c(c1)C(O)=C(C(=O)Nc1cncc(Cl)n1)N(C)S2(=O)=O, which melting point is on record?
**A.** 296 to 298 °C

**Q.** For Cc1ccc(C)n1CCNC(=O)CN(C)C, which melting point is on record?
**A.** 63 to 65 °C

**Q.** With O=C(NCC(F)(F)F)c1cc(Cl)cc(Cl)c1 as the molecule, how does the melting point read?
**A.** 145 to 147 °C

**Q.** For CON(C)C(=O)NC(CSC(C)=O)Cc1ccccc1 (stereo not given), which melting point is on record?
**A.** 68 to 70 °C

**Q.** Which melting point does the source give for COc1ccc2c(c1)C(=O)c1cccc(OC(C)C)c1-2 here?
**A.** 89 to 90 °C

**Q.** Which melting point does the source give for CC(C)c1nc2c(c3c1[nH]c1ccccc13)C(=O)C(C)(C)CC2 here?
**A.** 182 to 184 °C

**Q.** With Cc1cc(OCc2cnc(-c3cccc(C(F)(F)F)c3)nc2C2CC2)ccc1OC(C)(C)C(=O)O as the molecule, how does the melting point read?
**A.** 175 to 176 °C

**Q.** Which melting point does the source give for Cc1nc2n(c(=O)c1CCN1CCC(C(=NO)c3ccc(F)cc3F)CC1)CCCC2 here?
**A.** 180 to 183 °C

**Q.** With CCCNC1Cc2cccc3[nH]c(=O)n(c23)C1 (stereo not given) as the molecule, how does the melting point read?
**A.** > 300 °C

**Q.** For O=C(NC(=O)c1c(F)cccc1F)Nc1cc(Cl)c(Cl)c(Cl)c1, which melting point is on record?
**A.** 231 to 232 °C

**Q.** For CC(C)(C)c1ccc(C(=O)CCC(=O)O)cc1, which melting point is on record?
**A.** 117 to 120 °C

**Q.** With FC(F)Oc1cccc(-c2ccc3nnn(Cc4ccc5ncccc5c4)c3n2)c1 as the molecule, how does the melting point read?
**A.** 122 to 125 °C

**Q.** For CCCCCCCCCCCCCCCCCCNS(N)(=O)=O, which melting point is on record?
**A.** 105 to 107 °C

**Q.** For NS(=O)(=O)c1ccc(-c2ccc(Cl)n2-c2ccc(Cl)cc2Cl)cc1, which melting point is on record?
**A.** 186 to 187 °C

**Q.** Which melting point does the source give for N#CC1=C(c2c[nH]c3ccccc23)Nc2n[nH]cc2C1c1cccc2nonc12 (stereo not given) here?
**A.** 238 °C

**Q.** For Cc1c(F)cccc1Cc1c(-c2ccccc2)c2cccnn2c1C(=O)N1CCNCC1, which melting point is on record?
**A.** 140 to 142 °C

**Q.** With O=C(NCCCCN1CCC(c2ccc3c(c2OCc2ccccc2)CCCC3)CC1)c1ccc(-c2ccc(C(F)(F)F)cc2)cc1 as the molecule, how does the melting point read?
**A.** 169 to 170 °C

**Q.** Which melting point does the source give for CC1CCCC(C)N1S(=O)(=O)N[C@@H](Cc1ccc(Oc2nccc3cnccc23)cc1)C(=O)O (stereo not given in full) here?
**A.** 151 °C

**Q.** With CC1(C)CC2(CC(C)(C)N1c1nc(N(CCO)CCO)nc(N3CCOCC3)n1)OCCO2 as the molecule, how does the melting point read?
**A.** 135 to 140 °C

**Q.** Which melting point does the source give for O=C(CCc1cccc(C(F)(F)F)c1)NNC(=O)c1ccc2ncsc2c1 here?
**A.** 206 to 207 °C

**Q.** Which melting point does the source give for CC(C)Nc1c(-c2c(F)cc(F)cc2F)c(Cl)nc2nncn12 here?
**A.** 268 to 273 °C

**Q.** With CC1(C)C=C(C(=O)c2ccc3c(c2)CCN(C(N)=O)C3)C(C)(C)CC1 as the molecule, how does the melting point read?
**A.** 78.6 to 79.7 °C

**Q.** With Cc1oc(-c2ccc(C(F)(F)F)cc2)nc1CO as the molecule, how does the melting point read?
**A.** 98 to 99 °C

**Q.** For CC#CCOc1cc(Cc2c(F)cccc2F)ncn1, which melting point is on record?
**A.** 57.6 °C

**Q.** For Cc1cnc2c(Cl)cnn2c1-c1cccc(C(F)(F)F)c1, which melting point is on record?
**A.** 195 to 197 °C

**Q.** With CC12CCC(C(=O)O)=CC1=CCc1cc(Cl)ccc12 (single isomer, unassigned; (-)) as the molecule, how does the melting point read?
**A.** 228 to 230 °C

**Q.** With CC(C)(C)C(C)(O)C(CCOc1ccccc1)n1cncn1 (stereo not given) as the molecule, how does the melting point read?
**A.** 118 to 120 °C

**Q.** For Fc1ccccc1C1=CCc2nnc(-c3ccncc3)n2-c2ccc(Cl)cc21, which melting point is on record?
**A.** 198 to 200 °C

**Q.** For O=C(C1=Cc2ccccc2C1)C12CC3CC(CC(C3)C1)C2, which melting point is on record?
**A.** 124 to 125 °C

**Q.** With O=C1c2ccccc2C(=O)c2sc(-c3cc(Br)c(Br)o3)nc21 as the molecule, how does the melting point read?
**A.** > 260 °C

**Q.** With Cc1cc(Cc2cc(C(C)(C)CC(C)(C)C)cc(-n3nc4ccccc4n3)c2O)c(O)c(C(C)(C)C)c1 as the molecule, how does the melting point read?
**A.** 148 °C

**Q.** Which melting point does the source give for C#CCN1CC(=O)N(c2cc(Cl)ccc2C)C1=S here?
**A.** 131 to 134 °C

**Q.** Which melting point does the source give for CC(C)NCC(O)Cc1ccc([N+](=O)[O-])c(C2OCCO2)c1 (stereo not given) here?
**A.** 97 to 99 °C

**Q.** With c1ccc2c(c1)CCc1ccccc1C2CNc1ccncc1 as the molecule, how does the melting point read?
**A.** 145 to 146 °C

**Q.** With COC(=O)CCCCc1cc2cc(Cl)ccc2n1S(=O)(=O)c1ccccc1 as the molecule, how does the melting point read?
**A.** 95 to 98 °C

**Q.** Which melting point does the source give for Oc1nsnc1-c1c(Cl)cccc1Cl here?
**A.** 194 to 195 °C

**Q.** With Cn1nc(-c2cc3c(cc2F)NC(=O)CO3)c(Cl)c1C(F)(F)F as the molecule, how does the melting point read?
**A.** 242 °C
